The test system of one series is Lactuca sativa. Nature of the series: Inhibition of Lactuca sativa (lettuce) seed germination assessed as elongation of root by measuring germination rate (reference value: 75%). Format: functional.
Series [1] can be described thus: Toxicity in Artemia salina (brine shrimp) assessed as death rate after 1.5 days (reference value: 5%). The format is organism-based. Conditions: in vivo, read-out: Activity.

On to `O=C1C=C[C@@H]2O[C@H](c3ccccc3)[C@H](O)[C@@H]2O1` [(+)-ISOALTHOLACTONE], for which the “inhibition (INH)” value in the series with Lactuca sativa is recorded as 25%. In addition, the mortality at 36 h in series [1] turned out to be 13%.
For the compound `O=C1C=C[C@@H]2O[C@H](c3ccccc3)[C@@H](O)[C@@H]2O1` [ALTHOLACTONE], in the series on Lactuca sativa, the “inhibition (INH)” value worked out at 50%. The mortality at 36 h in series [1] was determined as 40%.
In the case of `O=C1C=C[C@H]2O[C@H](c3ccccc3)[C@@H](O)[C@@H]2O1`, the “inhibition (INH)” value in the series on Lactuca sativa amounted to 63%. Besides, in series [1], the mortality at 36 h worked out at 48%.
Consider `O=C1C=C[C@H]2O[C@H](c3ccccc3)[C@H](O)[C@@H]2O1`, for which the “inhibition (INH)” value in the series on Lactuca sativa was 56%. Moreover, in series [1], the mortality at 36 h was 31%.
The like results for `O=C1C=C[C@H]2O[C@@H](c3ccccc3)[C@H](O)[C@H]2O1` [ENT-ALTHOLACTONE] were, in that order, 5% and 31%.
For `O=C1C=C[C@H]2O[C@H](c3ccccc3)[C@@H](O)[C@H]2O1` [ENT-ISOALTHOLACTONE], in the series on Lactuca sativa, the “inhibition (INH)” value is 69%. For the same compound, in series [1], the mortality at 36 h amounted to 8%.

The record behind these values is ChEMBL document CHEMBL3045764, “Synthesis of Both Enantiomers of Altholactone, Isoaltholactone and 5-Hydroxygoniothalamin from Tri-O-acetyl-D-glucal, and Their Biological Activities” (J Pestic Sci, 2001).
